Measured values taken from the NIST ThermoML archive (doi:10.1021/acs.jced.6b00396).

Assay: xn = mol fraction of the nth substance listed
Details: Gas, isochoric method

F/C=C(\F)C(F)(F)F [(Z)-1,2,3,3,3-pentafluoro-1-propene] + CCC
Details	specific volume [m3/kg]
303.15 K, 459.8 kPa, x2 = 0.855	0.09
303.15 K, 722.5 kPa, x2 = 0.593	0.038
308.15 K, 412.6 kPa, x2 = 0.516	0.067
308.15 K, 468.5 kPa, x2 = 0.855	0.09
308.15 K, 491.5 kPa, x2 = 0.225	0.042
308.15 K, 738.6 kPa, x2 = 0.593	0.038
308.15 K, 946.2 kPa, x2 = 0.69	0.032
313.15 K, 420.3 kPa, x2 = 0.516	0.067
313.15 K, 477.3 kPa, x2 = 0.855	0.09
313.15 K, 501.4 kPa, x2 = 0.225	0.042
313.15 K, 754.6 kPa, x2 = 0.593	0.038
313.15 K, 968.3 kPa, x2 = 0.69	0.032
318.15 K, 428 kPa, x2 = 0.516	0.067
318.15 K, 486 kPa, x2 = 0.855	0.09
318.15 K, 511.5 kPa, x2 = 0.225	0.042
318.15 K, 770.3 kPa, x2 = 0.593	0.038
318.15 K, 990.1 kPa, x2 = 0.69	0.032
323.15 K, 435.7 kPa, x2 = 0.516	0.067
323.15 K, 494.7 kPa, x2 = 0.855	0.09
323.15 K, 521.2 kPa, x2 = 0.225	0.042
323.15 K, 786.1 kPa, x2 = 0.593	0.038
323.15 K, 1011.5 kPa, x2 = 0.69	0.032
328.15 K, 443.4 kPa, x2 = 0.516	0.067
328.15 K, 503.4 kPa, x2 = 0.855	0.09
328.15 K, 531.1 kPa, x2 = 0.225	0.042
328.15 K, 801.7 kPa, x2 = 0.593	0.038
328.15 K, 1033 kPa, x2 = 0.69	0.032
333.15 K, 451 kPa, x2 = 0.516	0.067
333.15 K, 512.1 kPa, x2 = 0.855	0.09
333.15 K, 540.8 kPa, x2 = 0.225	0.042
333.15 K, 817.3 kPa, x2 = 0.593	0.038
333.15 K, 1054.4 kPa, x2 = 0.69	0.032
338.15 K, 458.7 kPa, x2 = 0.516	0.067
338.15 K, 520.9 kPa, x2 = 0.855	0.09
338.15 K, 550.6 kPa, x2 = 0.225	0.042
338.15 K, 832.7 kPa, x2 = 0.593	0.038
338.15 K, 1075.7 kPa, x2 = 0.69	0.032
343.15 K, 466.6 kPa, x2 = 0.516	0.067
343.15 K, 529.5 kPa, x2 = 0.855	0.09
343.15 K, 560.3 kPa, x2 = 0.225	0.042
343.15 K, 848.1 kPa, x2 = 0.593	0.038
343.15 K, 1096.9 kPa, x2 = 0.69	0.032
348.15 K, 474.1 kPa, x2 = 0.516	0.067
348.15 K, 538.1 kPa, x2 = 0.855	0.09
348.15 K, 570 kPa, x2 = 0.225	0.042
348.15 K, 863.4 kPa, x2 = 0.593	0.038
348.15 K, 1118 kPa, x2 = 0.69	0.032
353.15 K, 481.7 kPa, x2 = 0.516	0.067
353.15 K, 546.7 kPa, x2 = 0.855	0.09
353.15 K, 580.1 kPa, x2 = 0.225	0.042
353.15 K, 878.7 kPa, x2 = 0.593	0.038
353.15 K, 1139.2 kPa, x2 = 0.69	0.032
358.15 K, 489.3 kPa, x2 = 0.516	0.067
358.15 K, 555.3 kPa, x2 = 0.855	0.09
358.15 K, 589.7 kPa, x2 = 0.225	0.042
358.15 K, 893.9 kPa, x2 = 0.593	0.038
358.15 K, 1160 kPa, x2 = 0.69	0.032
363.15 K, 496.8 kPa, x2 = 0.516	0.067
363.15 K, 563.9 kPa, x2 = 0.855	0.09
363.15 K, 909 kPa, x2 = 0.593	0.038
363.15 K, 1180.9 kPa, x2 = 0.69	0.032
363.16 K, 599.3 kPa, x2 = 0.225	0.042

C=C(F)C(F)(F)F [2,3,3,3-tetrafluoro-1-propene] + CCC
Details	specific volume [m3/kg]
268.15 K, 333 kPa, x2 = 0.709	0.095
273.15 K, 340.4 kPa, x2 = 0.709	0.095
278.15 K, 347.7 kPa, x2 = 0.709	0.095
278.15 K, 366.9 kPa, x2 = 0.505	0.072
283.15 K, 354.8 kPa, x2 = 0.709	0.095
283.15 K, 374.9 kPa, x2 = 0.505	0.072
288.13 K, 614.2 kPa, x2 = 0.611	0.047
288.15 K, 382.8 kPa, x2 = 0.505	0.072
288.16 K, 362 kPa, x2 = 0.709	0.095
288.16 K, 449 kPa, x2 = 0.23	0.048
293.15 K, 369.3 kPa, x2 = 0.709	0.095
293.15 K, 390.7 kPa, x2 = 0.505	0.072
293.15 K, 459.2 kPa, x2 = 0.23	0.048
293.17 K, 628.3 kPa, x2 = 0.611	0.047
298.15 K, 376.6 kPa, x2 = 0.709	0.095
298.15 K, 398.5 kPa, x2 = 0.505	0.072
298.15 K, 470.2 kPa, x2 = 0.23	0.048
298.15 K, 642.2 kPa, x2 = 0.611	0.047
298.15 K, 807.3 kPa, x2 = 0.839	0.047
303.15 K, 383.9 kPa, x2 = 0.709	0.095
303.15 K, 406.7 kPa, x2 = 0.505	0.072
303.15 K, 479.7 kPa, x2 = 0.23	0.048
303.15 K, 656.1 kPa, x2 = 0.611	0.047
303.15 K, 825.7 kPa, x2 = 0.839	0.047
308.15 K, 391 kPa, x2 = 0.709	0.095
308.15 K, 414.4 kPa, x2 = 0.505	0.072
308.15 K, 489.4 kPa, x2 = 0.23	0.048
308.15 K, 669.8 kPa, x2 = 0.611	0.047
308.15 K, 844 kPa, x2 = 0.839	0.047
313.15 K, 398.2 kPa, x2 = 0.709	0.095
313.15 K, 422.1 kPa, x2 = 0.505	0.072
313.15 K, 499.1 kPa, x2 = 0.23	0.048
313.15 K, 683.5 kPa, x2 = 0.611	0.047
313.15 K, 862.2 kPa, x2 = 0.839	0.047
318.15 K, 405.3 kPa, x2 = 0.709	0.095
318.15 K, 429.8 kPa, x2 = 0.505	0.072
318.15 K, 508.7 kPa, x2 = 0.23	0.048
318.15 K, 697.1 kPa, x2 = 0.611	0.047
318.15 K, 880.3 kPa, x2 = 0.839	0.047
323.15 K, 412.4 kPa, x2 = 0.709	0.095
323.15 K, 437.5 kPa, x2 = 0.505	0.072
323.15 K, 518.3 kPa, x2 = 0.23	0.048
323.15 K, 710.9 kPa, x2 = 0.611	0.047
323.15 K, 898.3 kPa, x2 = 0.839	0.047
328.15 K, 419.5 kPa, x2 = 0.709	0.095
328.15 K, 445.3 kPa, x2 = 0.505	0.072
328.15 K, 527.8 kPa, x2 = 0.23	0.048
328.15 K, 724.4 kPa, x2 = 0.611	0.047
328.15 K, 916.2 kPa, x2 = 0.839	0.047
333.15 K, 426.6 kPa, x2 = 0.709	0.095
333.15 K, 452.9 kPa, x2 = 0.505	0.072
333.15 K, 537.3 kPa, x2 = 0.23	0.048
333.15 K, 737.9 kPa, x2 = 0.611	0.047
333.15 K, 934 kPa, x2 = 0.839	0.047
338.15 K, 433.8 kPa, x2 = 0.709	0.095
338.15 K, 460.5 kPa, x2 = 0.505	0.072
338.15 K, 546.7 kPa, x2 = 0.23	0.048
338.15 K, 751.3 kPa, x2 = 0.611	0.047
338.15 K, 951.8 kPa, x2 = 0.839	0.047
343.15 K, 440.8 kPa, x2 = 0.709	0.095
343.15 K, 468.1 kPa, x2 = 0.505	0.072
343.15 K, 556.2 kPa, x2 = 0.23	0.048
343.15 K, 764.6 kPa, x2 = 0.611	0.047
343.15 K, 969.5 kPa, x2 = 0.839	0.047
348.14 K, 778 kPa, x2 = 0.611	0.047
348.15 K, 447.9 kPa, x2 = 0.709	0.095
348.15 K, 475.6 kPa, x2 = 0.505	0.072
348.15 K, 565.8 kPa, x2 = 0.23	0.048
348.15 K, 987.1 kPa, x2 = 0.839	0.047
353.15 K, 454.9 kPa, x2 = 0.709	0.095
353.15 K, 483.2 kPa, x2 = 0.505	0.072
353.15 K, 575.1 kPa, x2 = 0.23	0.048
353.15 K, 791.3 kPa, x2 = 0.611	0.047
353.15 K, 1004.6 kPa, x2 = 0.839	0.047
358.15 K, 462 kPa, x2 = 0.709	0.095
358.15 K, 490.8 kPa, x2 = 0.505	0.072
358.15 K, 584.5 kPa, x2 = 0.23	0.048
358.15 K, 804.5 kPa, x2 = 0.611	0.047
358.15 K, 1022.2 kPa, x2 = 0.839	0.047
363.15 K, 469 kPa, x2 = 0.709	0.095
363.15 K, 498.3 kPa, x2 = 0.505	0.072
363.15 K, 593.8 kPa, x2 = 0.23	0.048
363.15 K, 817.7 kPa, x2 = 0.611	0.047
363.16 K, 1039.6 kPa, x2 = 0.839	0.047
